From US7597899B2, “Compositions comprising a combination of a free sphingoid base and ceramide and uses thereof” (Cosmoferm B.V., priority 1997, dated 2009)

Tested on: IL-1α
Experiment: IL-1α secretion by UV-B irradiated excised human skin explants (ELISA), marker for antiinflammatory activity
Format: cell-based
Details: applied before and after UV-B irradiation, * significant p < 0.05
Procedure: The effect of phytosphingosine was assessed ex vivo on excised human skin explants.
The explant was exposed to UV-B rays as a physical, proinflammatory stress.
The antiinflammatory effect of phytosphingosine was evaluated by measurement of the amount of the cytokine IL-1α secreted in the incubation medium of the skin explants.
• Preparation of the human skin explants obtained after plastic surgery using standard techniques. • Application of the test product: • resp. 0% (Placebo), 0.2 and 0.5% phytosphingosine (PS) in Propylene glycol:Ethanol (60:40). • Dexamethasone (1 μM) was used as the reference product. • The products were applied before and after irradiation (˜2 mg/cm^2) • IL-1α secretion was measured in the incubation medium of the skin explants, using a standard ELISA technique. • Each experimental condition was performed in triplicate.

SMILES	IL-1α secreted in the incubation medium (Dexamethasone 1 μM, before UV-B 48, after UV-B 205, placebo 165)	IL-1α secreted in the incubation medium (0.2% PS in Propylene glycol:Ethanol (60:40), ~2 mg/cm^2, placebo 165)	IL-1α secreted in the incubation medium (0.5% PS in Propylene glycol:Ethanol (60:40), ~2 mg/cm^2, placebo 165)
C[C@@H]1C[C@H]2[C@@H]3CCC4=CC(=O)C=C[C@]4(C)[C@@]3(F)[C@@H](O)C[C@]2(C)[C@@]1(O)C(=O)CO [Dexamethasone, reference compound]	116* pg per ml	–	–
CCCCCCCCCCCCCCC(O)C(O)C(N)CO (stereo not drawn) [PS, 2-amino-octadecane-1,3,4-triol]	–	82* pg per ml	92* pg per ml
